pIC50: −log10 of the molar value.

This assay concerns the target T1, USP25 (USP25-His6, Boston Biochem E-546) (Homo sapiens, UniProt Q9UHP3).
T1 construct: His6; purchased Boston Biochem E-546
T1 sequence (Q9UHP3 1-1055): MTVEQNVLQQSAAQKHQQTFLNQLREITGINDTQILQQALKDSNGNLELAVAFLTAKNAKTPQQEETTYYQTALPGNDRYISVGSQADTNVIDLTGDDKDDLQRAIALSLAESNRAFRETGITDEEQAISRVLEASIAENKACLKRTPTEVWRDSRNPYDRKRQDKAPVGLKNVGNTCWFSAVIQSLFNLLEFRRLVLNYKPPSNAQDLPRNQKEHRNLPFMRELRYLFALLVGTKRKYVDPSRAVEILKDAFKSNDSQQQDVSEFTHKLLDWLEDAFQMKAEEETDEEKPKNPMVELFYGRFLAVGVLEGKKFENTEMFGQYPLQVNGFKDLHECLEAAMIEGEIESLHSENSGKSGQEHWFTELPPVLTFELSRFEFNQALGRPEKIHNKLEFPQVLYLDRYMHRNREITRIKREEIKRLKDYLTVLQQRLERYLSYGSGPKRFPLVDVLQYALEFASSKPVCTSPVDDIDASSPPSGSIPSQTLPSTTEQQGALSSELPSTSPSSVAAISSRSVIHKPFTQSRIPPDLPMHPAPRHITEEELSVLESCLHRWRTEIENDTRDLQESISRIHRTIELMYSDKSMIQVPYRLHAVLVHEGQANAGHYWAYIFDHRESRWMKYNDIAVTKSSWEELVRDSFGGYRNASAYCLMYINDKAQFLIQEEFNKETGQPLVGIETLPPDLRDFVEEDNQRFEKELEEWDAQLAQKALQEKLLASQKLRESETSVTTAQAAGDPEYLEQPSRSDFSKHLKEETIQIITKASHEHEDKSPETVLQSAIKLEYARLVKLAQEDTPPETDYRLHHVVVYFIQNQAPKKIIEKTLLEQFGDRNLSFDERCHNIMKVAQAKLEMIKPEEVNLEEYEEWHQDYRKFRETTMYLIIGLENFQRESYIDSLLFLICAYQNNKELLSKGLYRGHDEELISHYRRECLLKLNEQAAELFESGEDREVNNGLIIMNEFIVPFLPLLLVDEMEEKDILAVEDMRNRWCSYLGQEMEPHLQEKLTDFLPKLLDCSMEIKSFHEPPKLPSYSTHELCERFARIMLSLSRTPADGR
Put plainly: Ubiquitin-Rhodamine 110 Assay for USP25 Activity, Example A-2. Particulars: Ubiquitin-Rhodamine 110 assay, Example A-2; read-out: USP25 A-2 IC50 range. The assay is classed as biochemical. The procedure, abridged: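 Steps: compound dilutions (top 25 μM, 3-fold, 10 points) were preincubated 30 min with 75 pM USP25-His6; 25 nM Ub-Rh110 substrate was added under initial-velocity conditions; after 45 min at room temperature, 10 mM citric acid stopped the reaction before fluorescence reading.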
The term pIC50 denotes −log10 of the IC50, conventionally taken in molar units. Consider `Cc1cnc2c(N)c(C(=O)N[C@@H]3CCc4cc(N5CCCNCC5)ccc4C3)sc2n1` [Example 452, (R)-N-(6-(1,4-diazepan-1-yl)-1,2,3,4-tetrahydronaphthalen-2-yl)-7-amino-3-methylthieno[2,3-b]pyrazine-6-carboxamide], for which the pIC50 was less than 5.70.
For `O=C(N[C@H]1COc2cc(N3CCNCC3)ccc2C1)c1cnn2cc(Cl)ccc12` [Example 462, (R)-6-chloro-N-(7-(piperazin-1-yl)chroman-3-yl)pyrazolo[1,5-a]pyridine-3-carboxamide] the value was less than 5.70; for `CO[C@H]1CN(c2cc3c(c(F)c2F)C[C@@H](NC(=O)c2sc4nc(C)ccc4c2N)CO3)C[C@@H]1N` [Example 416, 3-amino-N-[(3R)-7-[(3S,4S)-3-amino-4-methoxpyrrolidin-1-yl]-5,6-difluoro-3,4-dihydro-2H-1-benzopyran-3-yl]-6-methylthieno[2,3-b]pyridine-2-carboxamide], 5.70 to 6.70.
Under `COc1ccn2ncc(C(=O)N[C@H]3COc4cc(N5CCNCC5)ccc4C3)c2c1` [Example 461, (R)-5-methoxy-N-(7-(piperazin-1-yl)chroman-3-yl)pyrazolo[1,5-a]pyridine-3-carboxamide] stands less than 5.70; under `Cc1ccc2c(N)c(C(=O)N[C@H]3COc4cc(N5CC[C@H](C(=O)O)C5)ccc4C3)sc2n1` [Example 6-3, (S)-1-((R)-3-(3-amino-6-methylthieno[2,3-b]pyridine-2-carboxamido)chroman-7-yl)pyrrolidine-3-carboxylic acid], less than 5.70.
With `O=C(N[C@H]1COc2cc(N3CCNCC3)ccc2C1)c1ccc(NCc2ccc3c(c2)CCO3)nc1` [Example 472, (R)-6-(((2,3-dihydrobenzofuran-5-yl)methyl)amino)-N-(7-(piperazin-1-yl)chroman-3-yl)nicotinamide], the pIC50 is 5.70 to 6.70.
Under `Cc1ccc2c(N)c(C(=O)N[C@H]3COc4cc(N5CC(O)(C(F)(F)F)C5)ccc4C3)sc2n1` [Example 5-3, (R)-3-amino-N-(7-(3-hydroxy-3-(trifluoromethyl)azetidin-1-yl)chroman-3-yl)-6-methylthieno[2,3-b]pyridine-2-carboxamide] stands 5.70 to 6.70; under `Cc1ccc2c(N)c(C(=O)N[C@@H]3COc4c(cc(F)c(N5CCNCC5)c4F)C3)sc2n1` (single isomer, unassigned) [Example 3-18], less than 5.70; under `Cc1cccc2c(C(=O)N[C@H]3COc4cc(N5CCNCC5)ccc4C3)cnn12` [Example 458, (R)-7-methyl-N-(7-(piperazin-1-yl)chroman-3-yl)pyrazolo[1,5-a]pyridine-3-carboxamide], 5.70 to 6.70.
For `O=C(N[C@H]1COc2cc(N3CCNCC3)ccc2C1)c1cn2nc(Cl)ccc2n1` [Example 464, (R)-6-chloro-N-(7-(piperazin-1-yl)chroman-3-yl)imidazo[1,2-b]pyridazine-2-carboxamide] the value was less than 5.70; for `Cc1cnc2c(N)c(C(=O)N[C@@H]3CCc4cc(N5CC6CNCC(C5)O6)ccc4C3)sc2n1` [Example 450, N-((2R)-6-(9-oxa-3,7-diazabicyclo[3.3.1]nonan-3-yl)-1,2,3,4-tetrahydronaphthalen-2-yl)-7-amino-3-methylthieno[2,3-b]pyrazine-6-carboxamide], less than 5.70; for `CO[C@@H]1CN(c2cc3c(c(F)c2F)C[C@@H](NC(=O)c2sc4nc(C)ccc4c2N)CO3)C[C@H]1N` [Example 415, 3-amino-N-[(3R)-7-[(3R,4R)-3-amino-4-methoxypyrrolidin-1-yl]-5,6-difluoro-3,4-dihydro-2H-1-benzopyran-3-yl]-6-methylthieno[2,3-b]pyridine-2-carboxamide], 5.70 to 6.70.
Under `Cc1ccc2c(N)c(C(=O)N[C@H]3CCc4nc(N5C[C@@H](N)[C@]6(CCCO6)C5)ccc4C3)sc2n1` [Example 391, 3-amino-N-[(6S)-2-[(5S,9R)-9-amino-1-oxa-7-azaspiro[4.4]nonan-7-yl]-5,6,7,8-tetrahydroquinolin-6-yl]-6-methylthieno[2,3-b]pyridine-2-carboxamide] stands 5.70 to 6.70; under `Cc1ccc2c(N)c(C(=O)N[C@H]3COc4cc(N5CC[C@H](N)C5)ccc4C3)sc2n1` [Example 369, 3-amino-N-[(3R)-7-[(3S)-3-aminopyrrolidin-1-yl]-3,4-dihydro-2H-1-benzopyran-3-yl]-6-methylthieno[2,3-b]pyridine-2-carboxamide], 6.70 to 7.30.
Turning to `O=C(N[C@H]1COc2cc(N3CC4CCC(C3)N4)ccc2C1)c1cnc2c(c1)[C@H]1C[C@H]1CN2` [Example 3-16, (1aR,7bS)-N-((3R)-7-(3,8-diazabicyclo[3.2.1]octan-3-yl)chroman-3-yl)-1a,2,3,7b-tetrahydro-1H-cyclopropa[c][1,8]naphthyridine-6-carboxamide], the pIC50 is less than 5.70.
Under `Cc1ccc2c(N)c(C(=O)N[C@H]3CCc4nc(N5C[C@H](N)[C@H](C(F)F)C5)ccc4C3)sc2n1` [Example 345, 3-amino-N-[(6S)-2-[(3R,4R)-3-amino-4-(difluoromethyl)pyrrolidin-1-yl]-5,6,7,8-tetrahydroquinolin-6-yl]-6-methylthieno[2,3-b]pyridine-2-carboxamide] stands 5.70 to 6.70; under `Cc1ccc2c(N)c(C(=O)N[C@H]3COc4cc(N5CC[C@@]6(CCCNC6)C5)ccc4C3)sc2n1` [Example 3-14, N-((R)-7-((R)-2,7-diazaspiro[4.5]decan-2-yl)chroman-3-yl)-3-amino-6-methylthieno[2,3-b]pyridine-2-carboxamide], 6.70 to 7.30; under `Cc1ccc2c(N)c(C(=O)N[C@H]3CCc4nc(N5C[C@H](N)[C@@]6(CCCO6)C5)ccc4C3)sc2n1` [Example 393, 3-amino-N-[(6S)-2-[(5R,9S)-9-amino-1-oxa-7-azaspiro[4.4]nonan-7-yl]-5,6,7,8-tetrahydroquinolin-6-yl]-6-methylthieno[2,3-b]pyridine-2-carboxamide], less than 5.70.
`Cc1ccc2c(N)c(C(=O)N[C@H]3CCc4nc(N5C[C@@H](N)[C@@H](C(F)F)C5)ccc4C3)sc2n1` [Example 346, 3-amino-N-[(6S)-2-[(3S,4S)-3-amino-4-(difluoromethyl)pyrrolidin-1-yl]-5,6,7,8-tetrahydroquinolin-6-yl]-6-methylthieno[2,3-b]pyridine-2-carboxamide]: the negative-log IC50 (pIC50) was 5.70 to 6.70.
Under `Cc1ccc2c(N)c(C(=O)N[C@H]3COc4cc(N5C[C@@H](N)[C@H](F)C5)ccc4C3)sc2n1` [Example 3-8, 3-amino-N-((R)-7-((3R,4R)-3-amino-4-fluoropyrrolidin-1-yl)chroman-3-yl)-6-methylthieno[2,3-b]pyridine-2-carboxamide] stands 5.70 to 6.70; under `Cc1ccc2c(N)c(C(=O)N[C@H]3COc4cc(N5CCN[C@@H](C(F)(F)F)C5)ccc4C3)sc2n1` [Example 3-11, 3-amino-6-methyl-N-((R)-7-((R)-3-(trifluoromethyl)piperazin-1-yl)chroman-3-yl)thieno[2,3-b]pyridine-2-carboxamide], 5.70 to 6.70.
For `O=C(N[C@H]1COc2cc(N3CCNCC3)ccc2C1)c1cnn2cccnc12` [Example 466, (R)-N-(7-(piperazin-1-yl)chroman-3-yl)pyrazolo[1,5-a]pyrimidine-3-carboxamide] the value was less than 5.70.

The values above are taken from patent publication US11524966B1 (Valo Early Discovery, Inc., priority 2017, dated 2022).
